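The compound was tested at five concentrations on cells cultured in 96-well plates, with a 48-hour exposure period. At the GI50, growth is halved.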 Calls of active or inactive are those of the source. Rule as the data show it: active = GI50 up to about 1.1 µM and inactive = higher.
Key:
Experiment in all cases: NCI-60 cell line screen, 48 h
[1] = system: LXFL 529
[2] = system: HOP-18
[3] = system: RXF 631
[4] = system: XF498
[5] = system: DMS-114
[6] = system: KM-20L2
[7] = system: M19-MEL
[8] = system: SNB-78
[9] = system: DMS-273

COc1cc2c(cc1C1=NC(C)(C)CO1)OCO2
GI50 [1]: > 100 µM (inactive) | GI50 [2]: > 100 µM (inactive) | GI50 [3]: > 100 µM (inactive) | GI50 [4]: > 100 µM (inactive) | GI50 [5]: > 100 µM (inactive) | GI50 [6]: > 100 µM (inactive) | GI50 [7]: > 100 µM (inactive)

CC(c1ccc(Br)cc1)C(C(=O)O)C(=O)O (centres undefined)
GI50 [1]: > 100 µM (inactive) | GI50 [2]: > 100 µM (inactive) | GI50 [8]: > 100 µM (inactive) | GI50 [9]: > 100 µM (inactive) | GI50 [5]: > 100 µM (inactive) | GI50 [6]: > 100 µM (inactive) | GI50 [7]: > 100 µM (inactive)

CN(C)c1ccc(/C=c2\sc3nnc(-c4cccnc4)n3c2=O)cc1
GI50 [1]: > 100 µM (inactive) | GI50 [2]: > 100 µM (inactive) | GI50 [8]: > 100 µM (inactive) | GI50 [4]: > 100 µM (inactive) | GI50 [9]: > 100 µM (inactive) | GI50 [5]: > 100 µM (inactive) | GI50 [6]: > 100 µM (inactive) | GI50 [7]: > 100 µM (inactive)

COc1ccc(/C=C2\CCC(CN(C)C)C2=O)cc1OC (centres undefined)
GI50 [1]: 2.43 µM (inactive) | GI50 [2]: 20.8 µM (inactive) | GI50 [8]: 17.5 µM (inactive) | GI50 [3]: 6.84 µM (inactive) | GI50 [4]: 13.5 µM (inactive) | GI50 [9]: 14.4 µM (inactive) | GI50 [5]: 12.5 µM (inactive) | GI50 [6]: 12.8 µM (inactive) | GI50 [7]: 7 µM (inactive)

CN1S(=O)(=O)N(C)P12(N=P(CP(=NP13(N(C)S(=O)(=O)N1C)N(C)S(=O)(=O)N3C)(c1ccccc1)c1ccccc1)(c1ccccc1)c1ccccc1)N(C)S(=O)(=O)N2C
GI50 [1]: > 100 µM (inactive) | GI50 [2]: > 100 µM (inactive) | GI50 [8]: > 100 µM (inactive) | GI50 [3]: > 100 µM (inactive) | GI50 [4]: > 100 µM (inactive) | GI50 [9]: > 100 µM (inactive) | GI50 [5]: > 100 µM (inactive) | GI50 [6]: > 100 µM (inactive) | GI50 [7]: > 100 µM (inactive)

Cc1ccc(S(=O)(=O)NC(=O)C2S(=O)(=O)OCCOS2(=O)=O)cc1
GI50 [1]: > 100 µM (inactive) | GI50 [8]: > 100 µM (inactive) | GI50 [3]: > 100 µM (inactive) | GI50 [4]: > 100 µM (inactive) | GI50 [9]: > 100 µM (inactive) | GI50 [7]: > 100 µM (inactive)

C#CCN(N=O)C(=O)NCCCC(NC(C)=O)C(=O)NCc1ccccc1 (centres undefined)
GI50 [1]: > 100 µM (inactive) | GI50 [2]: > 100 µM (inactive) | GI50 [8]: > 100 µM (inactive) | GI50 [3]: > 100 µM (inactive) | GI50 [4]: 0.0526 µM (active) | GI50 [5]: > 100 µM (inactive) | GI50 [6]: > 100 µM (inactive) | GI50 [7]: > 100 µM (inactive)

C=CC[P@@]1(=O)O[C@H](c2ccccc2)C(C)N1C(C)C (some centres undefined)
GI50 [1]: > 100 µM (inactive) | GI50 [2]: > 100 µM (inactive) | GI50 [8]: > 100 µM (inactive) | GI50 [3]: > 100 µM (inactive) | GI50 [4]: > 100 µM (inactive) | GI50 [9]: > 100 µM (inactive) | GI50 [5]: > 100 µM (inactive) | GI50 [7]: > 100 µM (inactive)

CN1c2c(O)nc(N)nc2NCC1CCNc1ccc(C(=O)NC(CCC(=O)O)C(=O)O)cc1 (centres undefined)
GI50 [2]: 1550 µM (inactive) | GI50 [8]: 1130 µM (inactive) | GI50 [4]: 394 µM (inactive) | GI50 [9]: 15.1 µM (inactive) | GI50 [5]: 294 µM (inactive) | GI50 [6]: 573 µM (inactive) | GI50 [7]: 222 µM (inactive)

O=S(=O)(O)c1ccc(/N=N/c2nc(C(F)(F)F)c(C(F)(F)F)[nH]2)cc1
GI50 [1]: 87.3 µM (inactive) | GI50 [2]: 25.5 µM (inactive) | GI50 [8]: 96.2 µM (inactive) | GI50 [3]: 30.8 µM (inactive) | GI50 [4]: 17.2 µM (inactive) | GI50 [9]: > 100 µM (inactive) | GI50 [5]: 16.8 µM (inactive) | GI50 [6]: 76.7 µM (inactive) | GI50 [7]: 39.2 µM (inactive)

COc1cc(/C=C/c2ccc(OC(C)=O)cc2)cc(OC)c1OC
GI50 [1]: 29.3 µM (inactive) | GI50 [2]: 55.3 µM (inactive) | GI50 [8]: 35.1 µM (inactive) | GI50 [3]: 11.6 µM (inactive) | GI50 [9]: 26.9 µM (inactive) | GI50 [5]: 22.9 µM (inactive) | GI50 [6]: 33.7 µM (inactive) | GI50 [7]: 39.9 µM (inactive)

CCCCCCCC(=O)OC(CBr)COC(=O)C(C)(C)C (centres undefined)
GI50 [1]: > 100 µM (inactive) | GI50 [2]: > 100 µM (inactive) | GI50 [8]: > 100 µM (inactive) | GI50 [3]: > 100 µM (inactive) | GI50 [4]: > 100 µM (inactive) | GI50 [9]: > 84.5 µM (inactive) | GI50 [5]: > 77.1 µM (inactive) | GI50 [6]: > 100 µM (inactive) | GI50 [7]: > 84.1 µM (inactive)

O=C1C=C(Br)C(=O)C(Br)=C1
GI50 [1]: 54.5 µM (inactive) | GI50 [2]: > 100 µM (inactive) | GI50 [8]: > 100 µM (inactive) | GI50 [3]: > 100 µM (inactive) | GI50 [4]: > 100 µM (inactive) | GI50 [9]: > 100 µM (inactive) | GI50 [5]: > 72.4 µM (inactive) | GI50 [6]: > 100 µM (inactive) | GI50 [7]: > 53.5 µM (inactive)

CSc1nc(NC2OCC(OC(C)=O)C(OC(C)=O)C2OC(C)=O)c(/N=C\C=N\c2c(NC3OCC(OC(C)=O)C(OC(C)=O)C3OC(C)=O)nc(SC)n(C)c2=O)c(=O)n1C (centres undefined)
GI50 [1]: > 100 µM (inactive) | GI50 [2]: > 100 µM (inactive) | GI50 [9]: > 100 µM (inactive) | GI50 [5]: > 100 µM (inactive) | GI50 [6]: > 100 µM (inactive) | GI50 [7]: > 100 µM (inactive)

CC(C)=CC(=O)c1c(C(=O)O)nc2ccccc2[n+]1[O-]
GI50 [1]: > 100 µM (inactive) | GI50 [8]: > 100 µM (inactive) | GI50 [3]: > 100 µM (inactive) | GI50 [9]: > 100 µM (inactive) | GI50 [5]: > 100 µM (inactive) | GI50 [6]: > 100 µM (inactive) | GI50 [7]: > 100 µM (inactive)

O=[N+]([O-])C1(CO)COC2(OC1)c1ccccc1-c1ccccc12
GI50 [1]: > 100 µM (inactive) | GI50 [2]: > 100 µM (inactive) | GI50 [8]: > 100 µM (inactive) | GI50 [3]: > 100 µM (inactive) | GI50 [9]: > 100 µM (inactive) | GI50 [5]: > 100 µM (inactive) | GI50 [6]: > 100 µM (inactive) | GI50 [7]: > 100 µM (inactive)

COc1cc(/C=C\c2ccccc2)cc(OC)c1OC
GI50 [1]: 6.56 µM (inactive) | GI50 [2]: > 36.8 µM (inactive) | GI50 [8]: 7.83 µM (inactive) | GI50 [3]: 8.87 µM (inactive) | GI50 [4]: 3.9 µM (inactive) | GI50 [9]: 1.24 µM (inactive) | GI50 [5]: 3.06 µM (inactive) | GI50 [6]: 1.64 µM (inactive) | GI50 [7]: 5.31 µM (inactive)

Cc1ccc(C(=O)O/N=C2/CCC/C2=C\c2ccccc2)cc1
GI50 [1]: > 100 µM (inactive) | GI50 [2]: > 100 µM (inactive) | GI50 [8]: > 100 µM (inactive) | GI50 [9]: > 100 µM (inactive) | GI50 [5]: > 100 µM (inactive) | GI50 [6]: > 100 µM (inactive) | GI50 [7]: > 100 µM (inactive)

c1coc(CNc2[nH]cnc3nncc2-3)c1
GI50 [1]: > 100 µM (inactive) | GI50 [8]: > 100 µM (inactive) | GI50 [3]: > 100 µM (inactive) | GI50 [4]: > 100 µM (inactive) | GI50 [9]: > 100 µM (inactive) | GI50 [5]: 44.5 µM (inactive) | GI50 [6]: > 100 µM (inactive) | GI50 [7]: > 100 µM (inactive)

Cn1c(CBr)nc2c1C(=O)c1nc(CBr)[nH]c(=O)c1C2=O
GI50 [1]: 53.7 µM (inactive) | GI50 [2]: > 100 µM (inactive) | GI50 [3]: > 100 µM (inactive) | GI50 [5]: > 100 µM (inactive) | GI50 [6]: 46.1 µM (inactive) | GI50 [7]: 26.8 µM (inactive)

CN1/C(=C/C(=O)c2ccc(Cl)cc2)Nc2ccccc21
GI50 [1]: 33.2 µM (inactive) | GI50 [8]: > 100 µM (inactive) | GI50 [3]: 43.3 µM (inactive) | GI50 [4]: 60.3 µM (inactive) | GI50 [6]: 29.2 µM (inactive) | GI50 [7]: 38.2 µM (inactive)

N#C/C(=C1\SC(/N=N/c2ccc(Cl)cc2)C(=O)N1c1ccccc1)c1nc2ccccc2[nH]1 (centres undefined)
GI50 [1]: 24.6 µM (inactive) | GI50 [8]: 42.1 µM (inactive) | GI50 [4]: 31.3 µM (inactive) | GI50 [9]: 36.8 µM (inactive) | GI50 [6]: > 100 µM (inactive) | GI50 [7]: 28.1 µM (inactive)

OCC[N+]12CCCN1CCC2
GI50 [1]: > 100 µM (inactive) | GI50 [2]: > 100 µM (inactive) | GI50 [8]: > 100 µM (inactive) | GI50 [9]: > 100 µM (inactive) | GI50 [5]: > 100 µM (inactive) | GI50 [6]: > 100 µM (inactive) | GI50 [7]: > 100 µM (inactive)

COc1cc2c(cc1OC)[C@H]1CN3CCC[C@H]3C=C1c1ccc(OC)c(O)c1-2
GI50 [1]: < 0.0001 µM (active) | GI50 [2]: < 0.0001 µM (active) | GI50 [8]: < 0.0001 µM (active) | GI50 [4]: < 0.0001 µM (active) | GI50 [9]: < 0.0001 µM (active) | GI50 [5]: < 0.0001 µM (active) | GI50 [6]: < 0.0001 µM (active) | GI50 [7]: < 0.0001 µM (active)

CC(C)(C)OP(=O)(OC(C)(C)C)C(O)c1ccc(/C=C(\C#N)C(N)=O)cc1 (centres undefined)
GI50 [1]: > 100 µM (inactive) | GI50 [8]: > 100 µM (inactive) | GI50 [4]: > 100 µM (inactive) | GI50 [9]: > 100 µM (inactive) | GI50 [5]: > 100 µM (inactive) | GI50 [6]: > 100 µM (inactive) | GI50 [7]: > 100 µM (inactive)
